Patent US20100184869A1, “METHOD AND KIT FOR DETERMINING SIRTUIN MODULATING AGENTS, SIRTUIN MODULATING PROCEDURE, SIRTUIN MODULATING COMPOUNDS AND COMPOSITIONS INCLUDING THE SAME” (priority 2008, published 2010)

Tested on: SIRT1 gene expression
Test: semi-quantitative RT-PCR of sirtuin mRNA/β-actin mRNA ratio in zebrafish tissues after resveratrol
Format: in vivo, zebrafish (Danio rerio)
Settings: FIG. 3
Description: On the Y axis, I is the rate of mRNA X, a is muscle and b is liver.
The method for determining modulating agents of sirtuin gene expression is comprised of the following stages: • a) contacting cells comprising at least on gene of the sirtuin family and the β-actin gene, with a modulating agent; • b) determining the relative abundance of mRNA of the sirtuin-family gene; • c) determining the relative abundance of the mRNA of the β-actin gene; and • d) determining the mRNA SIRTImRNA β-actin ratio.
The mapping of the pattern and levels of expression in each one of the eight genes related to zebrafish sirtuin was determined in eight tissues (spleen, gills, brain, heart, liver, female sexual organs and male sexual organs, skeletal muscle and kidneys), by way of the analysis of semi-quantitative RT-PCR comparing the relative abundance of mRNA of each one of the genes related to sirtuins with the mRNA of the gene codifying for β-actin (mean ±E.P.) (FIG. 2 and Table 2).

Oc1ccc(/C=C/c2cc(O)cc(O)c2)cc1 [resveratrol, 3.4′,5-trihydroxy-trans-stilbene]
SIRT1 gene expression (mRNA SIRT/mRNA β-actin ratio) (zebrafish liver): significant increase | SIRT1 gene expression (mRNA SIRT/mRNA β-actin ratio) (zebrafish skeletal muscle): significant increase
